# Results as given in the supplement of paper PMC11208160.
# Experiment: recombinant barcode read abundance after kanamycin selection (control-corrected) (log10(CPM+1)); higher = more efficient recombination; sequences stand for … in AGTGCAGAGAAAATCGGCCAGTTTTCTCTGCCTGCAGTCCGCATGCCGT…AGATTTATGCAGCGGACTGCCTTTCTCCCAAAGTGATAAACCGGACAGTATCATGGACCGGTTTTCCCGGTAATCCGTATTTGCAAGGTTGGTTTCACT; site = the 11-nt target
# Method in brief: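 A promoter, a target, a barcode and the first 104 bridge RNA bases under J23119 made up each oligo. Oligos were Gibson-cloned into a vector bearing the other 73 bp and a T7-inducible recombinase, then co-electroporated into E. coli with a donor plasmid and plated in duplicate on chloramphenicol/ampicillin LB agar (control) or chloramphenicol/ampicillin/kanamycin with 0.1 mM IPTG. Recombination efficiency is the averaged, control-corrected counts per million of recombinant-junction barcodes. Reported values are log10(CPM+1).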
# 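Note: IS621 recombinase and bridge RNA in Escherichia coli cells.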
row,Sequence,recombinant barcode read abundance (log10)
1,GGTCGAACTTGGGTTCTAACCTGTTGCCT (site GGTCAAACTAG),0.107
2,GGTCGAACTTGGGTTCTAACCTGTTGCCT (site GGTCCAACTAG),0.127
3,GGTCGAACTTGGGTTCTAACCTGTTGCCT (site GGTCGAACTAG),0.624
4,GGTCGAACTTGGGTTCTAACCTGTTGCCT (site GGTCTAACTAG),0.0343
5,GGTCGCTCTTGGGTTCTAACCTGTTGCCT (site GGACGCTCTAG),0.0961
6,GGTCGCTCTTGGGTTCTAACCTGTTGCCT (site GGTCGCTCTAG),1.35
7,GGTGACTCTTGGGTTCTAACCTGTTGCCT (site GGTGACTCTAG),1.15
8,GGTGACTCTTGGGTTCTAACCTGTTGCCT (site GGTGGATCTAG),0.114
9,GGTGCTCCTTGGGTTCTAACCTGTTGCAA (site GGTGCTCCTAT),0.0718
10,GGTGCTCCTTGGGTTCTAACCTGTTGCAA (site GGTGCTCCTCT),0.0634
11,GGTGCTCCTTGGGTTCTAACCTGTTGCAA (site GGTGCTCCTGT),0.0326
12,GGTGCTCCTTGGGTTCTAACCTGTTGCAA (site GGTGCTCCTTT),0.3
13,GGTGCTCCTTGGGTTCTAACCTGTTGCAG (site GGTGCTCCTAT),0.0917
14,GGTGCTCCTTGGGTTCTAACCTGTTGCAG (site GGTGCTCCTCT),0.88
15,GGTGCTCCTTGGGTTCTAACCTGTTGCAG (site GGTGCTCCTGT),0
16,GGTGCTCCTTGGGTTCTAACCTGTTGCAG (site GGTGCTCCTTT),0.0255
17,GGTGCTCCTTGGGTTCTAACCTGTTGCAT (site GGTGCTCCTAT),0.914
18,GGTGCTCCTTGGGTTCTAACCTGTTGCAT (site GGTGCTCCTCT),0.017
19,GGTGCTCCTTGGGTTCTAACCTGTTGCAT (site GGTGCTCCTGT),0.0976
20,GGTGCTCCTTGGGTTCTAACCTGTTGCAT (site GGTGCTCCTTT),0.0242
21,GGTGGGACTTGGGTTCTAACCTGTTGCAC (site AAATCTGCTAG),0.259
22,GGTGGGACTTGGGTTCTAACCTGTTGCAC (site GGTGGGACTGT),1.95

row,Sequence,recombinant barcode read abundance (log10)
1,GGTTCATCTTGGGTTCTAACCTGTTGCCA (site GGCTCCTCTTG),0.0691
2,GGTTCATCTTGGGTTCTAACCTGTTGCCA (site GGTTCATCTTG),0.0738
3,GGTTCCTCTTGGGTTCTAACCTGTTGCGG (site GGTTCCTCTCC),0.933
4,GGTTCCTCTTGGGTTCTAACCTGTTGCGG (site TACCTAACTAA),0.118
5,GGTTGACCTTGGGTTCTAACCTGTTGCAT (site GGTTCACCTCT),0.226
6,GGTTGACCTTGGGTTCTAACCTGTTGCAT (site GGTTGACCTAT),0.913
7,GTAACCTCTTGGGTTCTAACCTGTTGCCC (site GTAACCTCTAG),0.928
8,GTAACCTCTTGGGTTCTAACCTGTTGCCC (site GTAACCTCTCG),0.179
9,GTAACCTCTTGGGTTCTAACCTGTTGCCC (site GTAACCTCTGG),1.97
10,GTAACCTCTTGGGTTCTAACCTGTTGCCC (site GTAACCTCTTG),0.128
11,GTAACTACTTGGGTTCTAACCTGTTGCAC (site CTAATTACTGT),0.0302
12,GTAACTACTTGGGTTCTAACCTGTTGCAC (site GTAACTACTGT),0.926
13,GTAACTACTTGGGTTCTAACCTGTTGCGG (site GTAACTACTCC),2.1
14,GTAACTACTTGGGTTCTAACCTGTTGCGG (site GTCACTACTAC),0.0797
15,GTAACTCCTTGGGTTCTAACCTGTTGCCT (site GTAACTCCTAG),0.487
16,GTAACTCCTTGGGTTCTAACCTGTTGCCT (site TGAACTCCTAG),0.041
17,GTAACTGCTTGGGTTCTAACCTGTTGCCT (site GTAAATGCTAG),0.373
18,GTAACTGCTTGGGTTCTAACCTGTTGCCT (site GTAACTGCTAG),0.941
19,GTAACTGCTTGGGTTCTAACCTGTTGCCT (site GTAAGTGCTAG),0.084
20,GTAACTGCTTGGGTTCTAACCTGTTGCCT (site GTAATTGCTAG),0.0184
21,GTAAGGACTTGGGTTCTAACCTGTTGCTT (site GTAAGAACTAA),0.738
22,GTAAGGACTTGGGTTCTAACCTGTTGCTT (site GTAAGCACTAA),0.156

row,Sequence,recombinant barcode read abundance (log10)
1,GTAAGGACTTGGGTTCTAACCTGTTGCTT (site GTAAGGACTAA),1.16
2,GTAAGGACTTGGGTTCTAACCTGTTGCTT (site GTAAGTACTAA),0.0109
3,GTAAGTACTTGGGTTCTAACCTGTTGCCA (site ATAAGTCCTTG),0.063
4,GTAAGTACTTGGGTTCTAACCTGTTGCCA (site GTAAGTACTTG),1.54
5,GTAATTACTTGGGTTCTAACCTGTTGCCT (site GTAATTACTAG),0.441
6,GTAATTACTTGGGTTCTAACCTGTTGCCT (site TACGCACCTTC),0.0355
7,GTACAGCCTTGGGTTCTAACCTGTTGCCT (site GTACAGCCTAG),1.35
8,GTACAGCCTTGGGTTCTAACCTGTTGCCT (site GTACCGCCTAG),0.0712
9,GTACAGCCTTGGGTTCTAACCTGTTGCCT (site GTACGGCCTAG),0.0431
10,GTACAGCCTTGGGTTCTAACCTGTTGCCT (site GTACTGCCTAG),0.155
11,GTACATCCTTGGGTTCTAACCTGTTGCGT (site AAGGTCACTCA),0.0803
12,GTACATCCTTGGGTTCTAACCTGTTGCGT (site GTACATCCTAC),2.13
13,GTACGCGCTTGGGTTCTAACCTGTTGCGT (site CTACGCGCTAA),0.392
14,GTACGCGCTTGGGTTCTAACCTGTTGCGT (site GTACGCGCTAC),1.14
15,GTACGCTCTTGGGTTCTAACCTGTTGCTT (site GGAAGCTCTAA),0
16,GTACGCTCTTGGGTTCTAACCTGTTGCTT (site GTACGCTCTAA),0.218
17,GTACGGTCTTGGGTTCTAACCTGTTGCAT (site GTACGATCTTT),0.107
18,GTACGGTCTTGGGTTCTAACCTGTTGCAT (site GTACGGTCTAT),2
19,GTACGTCCTTGGGTTCTAACCTGTTGCTT (site GTACGTCCTAA),0.777
20,GTACGTCCTTGGGTTCTAACCTGTTGCTT (site GTACGTCCTAC),0.143
21,GTACGTCCTTGGGTTCTAACCTGTTGCTT (site GTACGTCCTAG),0.299
22,GTACGTCCTTGGGTTCTAACCTGTTGCTT (site GTACGTCCTAT),0.374

row,Sequence,recombinant barcode read abundance (log10)
1,GTACTGCCTTGGGTTCTAACCTGTTGCCT (site GTACAGCCTAG),0.52
2,GTACTGCCTTGGGTTCTAACCTGTTGCCT (site GTACCGCCTAG),0.366
3,GTACTGCCTTGGGTTCTAACCTGTTGCCT (site GTACGGCCTAG),0.531
4,GTACTGCCTTGGGTTCTAACCTGTTGCCT (site GTACTGCCTAG),1.28
5,GTAGACACTTGGGTTCTAACCTGTTGCCG (site GTAAACACTCT),0.142
6,GTAGACACTTGGGTTCTAACCTGTTGCCG (site GTAGACACTCG),1.28
7,GTAGACCCTTGGGTTCTAACCTGTTGCCT (site ATAGACCCTAG),2.3
8,GTAGACCCTTGGGTTCTAACCTGTTGCCT (site CTAGACCCTAG),1.16
9,GTAGACCCTTGGGTTCTAACCTGTTGCCT (site GTAGACCCTAG),2.5
10,GTAGACCCTTGGGTTCTAACCTGTTGCCT (site TTAGACCCTAG),1.85
11,GTAGACCCTTGGGTTCTAACCTGTTGCGT (site GTAGACCCTAC),3.46
12,GTAGACCCTTGGGTTCTAACCTGTTGCGT (site GTAGACCCTCA),0.309
13,GTAGAGTCTTGGGTTCTAACCTGTTGCCT (site GAAGAGTCTAG),2.36
14,GTAGAGTCTTGGGTTCTAACCTGTTGCCT (site GCAGAGTCTAG),1.94
15,GTAGAGTCTTGGGTTCTAACCTGTTGCCT (site GGAGAGTCTAG),0.239
16,GTAGAGTCTTGGGTTCTAACCTGTTGCCT (site GTAGAGTCTAG),2.84
17,GTAGCAGCTTGGGTTCTAACCTGTTGCTC (site CTAGTAGCTGA),0.146
18,GTAGCAGCTTGGGTTCTAACCTGTTGCTC (site GTAGCAGCTGA),1.4
19,GTAGCGACTTGGGTTCTAACCTGTTGCCT (site ATAGGGACTAG),0.149
20,GTAGCGACTTGGGTTCTAACCTGTTGCCT (site GTAGCGACTAG),1.43
